# Data published in patent US20040116330A1, “Preventive/therapeutic method for cancer” (priority 2001, published 2004).
# pIC50: −log10 of the molar value.
# Tests used:
# [1] = tested on: HER2 high expression human breast cancer cells BT-474; conditions: HER2 score 3+, dose 20 mg/kg/day orally for 14 days
# Protocol: Immediately after transplantation and day 7 after the transplantation, estradiol dipropionate (5 mg/kg solution, 50 μL) was intramuscularly administered to the hind leg with the aim of enhancing the survival rate of the tumor. HER2 expression human non-parvicellular lung cancer A549 cells were suspended in Matrigel solution and 5,000,000 cells were subcutaneously transplanted into the chest of female BALB/c nude mouse (6 weeks of age). HER2 expression human kidney cancer ACHN cells (2,000,000 cells) were subcutaneously transplanted into the chest of nude mouse. […]
# (§1) An increase in the tumor volume from that before administration to that on the next day of the final administration was compared to that of the control group and an anti-tumor effect was studied. In addition, the tumor volume was calculated from the following equation: […]
# (§2) A ratio of the value obtained by subtracting a tumor volume on the day of the administration initiation from the tumor volume on the next day of the completion of the administration in the control group, and the value obtained by subtracting the tumor volume on the day of the administration initiation from the tumor volume on the next day of the completion of the administration was determined as a growth rate (T/C (%)).
# Src = Src (Homo sapiens, UniProt P12931); experiment: cell-based
# Protocol: The medium was changed to a serum-free medium and the cells were further incubated for one day. […] The culture medium was removed 5 min later and SDS sample buffer was added to give a cell lysate (200 μL).
# [2] = tested on: HER2 high expression human breast cancer cells BT-474; conditions: BT-474, 1 μmol/L, 5 days
# Protocol: After the culture, the culture medium was removed and a cell suspension was prepared by a trypsin treatment and the cells were fixed with 70% ethanol. The DNA of the cells was stained with propidium iodide and the DNA amount was measured by a flow cytometer. The cells with a decreased amount of DNA are apoptotic (cell death) cells.
# [3] = tested on: HER2 high expression human breast cancer cell BT-474; experiment: Anti-tumor effect, combined use, BT-474 cancer-bearing nude mice; type: in vivo; conditions: BT-474 nude mice, 5 cases out of 5, same regimens as T/C
# Protocol: An increase in the tumor volume from that before administration to that on the next day of the final administration was compared to that of the control group and anti-tumor effect was studied. In addition, the tumor volume was calculated from the following equation:
# Formula: Tumor volume=longer diameter×shorter diameter×shorter diameter×(½)
# The ratio of the value obtained by subtracting the tumor volume on the day of administration initiation from the tumor volume on the next day of the completion of the administration in the control group, and the value obtained by subtracting the tumor volume on the day of administration initiation from the tumor volume on the next day of the completion of the administration was determined as a growth rate (T/C (%)).
# Ma-1 = experiment: cells; conditions: read-out: Compound B4 IC50 (μmol/L), Ma-1
# Protocol: (§3) 1) Cell growth inhibitory action; Each cell line was sown in a 24-well multi-well plate (5×10^4 to 2×10^5 cells/well) and cultured overnight in a carbon dioxide gas incubator (5% CO2, 37° C. ).
# BxPC-3 = experiment: cells; conditions: Homo sapiens, BXPC-3, read-out: Compound B4 IC50 (μmol/L), BxPC-3
# Protocol: as §3
# MDA-MB-231 [4] = experiment: cells; conditions: Homo sapiens, MDA-MB-231, read-out: Compound B4 IC50 (μmol/L), MDA-MB-231
# Protocol: as §3
# HCT-116 = experiment: cells; conditions: Homo sapiens, HCT-116, read-out: Compound B4 IC50 (μmol/L), HCT-116
# Protocol: as §3
# BT-474 = experiment: cells; conditions: Homo sapiens, BT-474, read-out: Compound B4 IC50 (μmol/L), BT-474
# Protocol: as §3
# ACHN = experiment: cells; conditions: Homo sapiens, read-out: Compound B4 IC50 (μmol/L), ACHN
# Protocol: as §3
# MIA-PaCa-2 = experiment: cells; conditions: Homo sapiens, MIA PaCa-2, read-out: Compound B4 IC50 (μmol/L), MIA-PaCa-2
# Protocol: as §3
# G401 = experiment: cells; conditions: Homo sapiens, G-401, read-out: Compound B4 IC50 (μmol/L), G401
# Protocol: as §3
# 786-O = experiment: cells; conditions: Homo sapiens, 786-0, read-out: Compound B4 IC50 (μmol/L), 786-O
# Protocol: as §3
# A549 = experiment: cells; conditions: Homo sapiens, A549, read-out: Compound B4 IC50 (μmol/L), A549
# Protocol: as §3
# ES-2 = experiment: cells; conditions: Homo sapiens, ES-2, read-out: Compound B4 IC50 (μmol/L), ES-2
# Protocol: as §3
# NIH: OV-CAR-3 = experiment: cells; conditions: Homo sapiens, OVCAR-3, read-out: Compound B4 IC50 (μmol/L), NIH: OV-CAR-3
# Protocol: as §3
# PA-1 = experiment: cells; conditions: Homo sapiens, PA-1, read-out: Compound B4 IC50 (μmol/L), PA-1
# Protocol: as §3
# SW480 = experiment: cells; conditions: Homo sapiens, SW480, read-out: Compound B4 IC50 (μmol/L), SW480
# Protocol: as §3
# HER2 [5] = target: T1, HER2 (Homo sapiens, UniProt P04626); experiment: in vivo
# Protocol: Four hours later, the tumor was sampled and a tumor homogenate was prepared.
# [6] = tested on: HER2/EGF-R co-expression cells (A549); conditions: 3 days, cell count
# Protocol: (§4) 1) Cell growth inhibitory action; Each cell line was sown in a 24-well multi-well plate (5×10^4 cells/well) and cultured overnight in a carbon dioxide gas incubator (5% CO2, 37° C. ).
# [7] = tested on: HER2 non-expression cells (Ma-1); conditions: 3 days, cell count
# Protocol: as §4
# [8] = tested on: HER2 expression cells (Ma-46); conditions: 3 days, cell count
# Protocol: as §4
# MDA-MB-231 [9] = conditions: breast, HER2 score 0, dose 20 mg/kg/day orally for 14 days
# Protocol: as §1, §2
# HER2 [10] = target: T1, HER2; experiment: cell-based
# T1 sequence (P04626 23-1255): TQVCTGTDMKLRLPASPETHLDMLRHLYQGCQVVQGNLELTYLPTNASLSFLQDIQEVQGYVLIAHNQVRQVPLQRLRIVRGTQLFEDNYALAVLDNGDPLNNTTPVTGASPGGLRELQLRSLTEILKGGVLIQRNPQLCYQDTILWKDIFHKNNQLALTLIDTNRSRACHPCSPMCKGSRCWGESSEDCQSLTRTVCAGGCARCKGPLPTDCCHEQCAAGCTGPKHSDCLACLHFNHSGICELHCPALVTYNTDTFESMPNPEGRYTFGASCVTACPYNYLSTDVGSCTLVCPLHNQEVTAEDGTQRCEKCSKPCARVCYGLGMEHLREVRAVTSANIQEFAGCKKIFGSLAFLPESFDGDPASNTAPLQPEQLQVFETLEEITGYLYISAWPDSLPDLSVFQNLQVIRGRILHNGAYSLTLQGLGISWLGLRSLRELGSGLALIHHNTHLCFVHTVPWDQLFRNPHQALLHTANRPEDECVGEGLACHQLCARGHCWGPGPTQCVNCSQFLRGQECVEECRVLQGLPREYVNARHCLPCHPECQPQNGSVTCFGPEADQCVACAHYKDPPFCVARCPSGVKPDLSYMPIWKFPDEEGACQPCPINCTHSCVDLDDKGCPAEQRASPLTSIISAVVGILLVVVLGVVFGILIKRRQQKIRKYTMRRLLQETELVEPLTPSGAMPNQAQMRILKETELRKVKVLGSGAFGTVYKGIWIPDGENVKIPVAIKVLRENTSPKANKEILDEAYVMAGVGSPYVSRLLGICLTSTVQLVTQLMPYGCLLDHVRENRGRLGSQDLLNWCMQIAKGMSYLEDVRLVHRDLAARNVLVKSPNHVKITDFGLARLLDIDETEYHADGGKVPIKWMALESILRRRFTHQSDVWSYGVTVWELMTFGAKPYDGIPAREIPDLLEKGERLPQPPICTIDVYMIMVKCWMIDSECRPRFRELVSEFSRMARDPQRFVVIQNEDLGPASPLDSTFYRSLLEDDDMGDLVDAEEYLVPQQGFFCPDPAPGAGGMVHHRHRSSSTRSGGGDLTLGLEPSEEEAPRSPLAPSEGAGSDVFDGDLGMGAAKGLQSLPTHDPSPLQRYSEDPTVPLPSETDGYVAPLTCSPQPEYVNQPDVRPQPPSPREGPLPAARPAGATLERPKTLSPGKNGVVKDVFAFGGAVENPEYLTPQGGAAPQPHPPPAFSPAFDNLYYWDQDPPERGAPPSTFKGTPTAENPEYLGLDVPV
# Src, sequence (P12931 2-536 limits assumed): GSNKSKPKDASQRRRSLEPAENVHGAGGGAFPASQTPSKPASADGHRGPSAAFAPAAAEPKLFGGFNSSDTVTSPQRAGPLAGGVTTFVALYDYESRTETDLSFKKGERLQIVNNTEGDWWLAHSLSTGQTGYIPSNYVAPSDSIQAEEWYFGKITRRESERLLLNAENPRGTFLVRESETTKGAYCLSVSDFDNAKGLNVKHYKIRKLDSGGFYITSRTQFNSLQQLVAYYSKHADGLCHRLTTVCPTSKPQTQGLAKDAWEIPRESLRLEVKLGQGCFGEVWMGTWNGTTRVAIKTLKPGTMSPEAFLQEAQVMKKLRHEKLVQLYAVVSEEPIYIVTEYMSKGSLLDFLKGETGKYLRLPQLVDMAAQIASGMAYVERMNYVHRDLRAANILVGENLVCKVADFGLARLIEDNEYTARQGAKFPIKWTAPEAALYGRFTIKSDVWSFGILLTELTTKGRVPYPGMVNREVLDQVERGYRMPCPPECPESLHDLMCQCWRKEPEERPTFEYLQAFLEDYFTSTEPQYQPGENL
smiles,measurement,setting,value
"FC(F)(F)c1ccc(/C=C/c2nc(COc3ccc(CCCCn4ccnn4)cc3)co2)cc1 [Compound B4, 1-(4-{4-[(2-{(E)-2-[4-(trifluoromethyl)phenyl]ethenyl}-1,3-oxazol-4-yl)methoxy]phenyl}butyl)-1H-1,2,3-triazole]","T/C (%), BT-474",[1],−18%
same,pIC50,Src,< 4.60
same,cell death induction,[2],induced cell death
same,reduction of tumor volume,[3],13-30%
same,pIC50,Ma-1,< 4.60
same,pIC50,BxPC-3,< 4.60
same,pIC50,MDA-MB-231 [4],< 4.60
same,pIC50,HCT-116,> 7.30
same,pIC50,BT-474,7.30
same,pIC50,ACHN,6.85
same,pIC50,MIA-PaCa-2,7.70
same,pIC50,G401,> 7.30
same,pIC50,786-O,< 4.60
same,pIC50,A549,8.10
same,pIC50,ES-2,4.92
same,pIC50,NIH: OV-CAR-3,7.22
same,pIC50,PA-1,> 7.30
same,pIC50,SW480,< 4.60
same,inhibition at 20 mg/kg,"HER2 [5]; BT-474, mouse, po, read-out: intra-tumor HER2 phosphorylation, % inhibition",87%
same,"intra-tumor HER2 phosphorylation (per tumor weight), % of the control group","HER2 [5]; BT-474 nude mice, 20 mg/kg/day orally 14 days then 10 mg/kg, tumor sampled four hours later",13%
same,cell growth inhibitory action on A549,[6],strong cell growth inhibitory action
same,cell growth inhibitory action on Ma-1,[7],did not show a cell growth inhibitory action
same,cell growth inhibitory action on Ma-46,[8],strong cell growth inhibitory action
same,"T/C (%), MDA-MB-231",MDA-MB-231 [9],87%
same,pIC50,HER2 [10],8.40
